The NIST ThermoML archive (doi:10.1016/j.jct.2016.07.008)
± gives the expanded uncertainty stated by the source.

Test: xn = mol fraction of the nth substance listed
Conditions: Liquid, Vibrating wire viscometry

Cc1ccc(C)c(C)c1 [1,2,4-trimethylbenzene] + CCCCO
viscosity [mPa·s]
Conditions	x2 = 0.2999	x2 = 0.5289	x2 = 0.7991
293.15 K, 100 kPa	1.004 ± 0.018	1.227 ± 0.021	1.959 ± 0.032
293.15 K, 1000 kPa	1.019 ± 0.019	1.228 ± 0.021	1.977 ± 0.032
293.15 K, 5000 kPa	1.066 ± 0.019	1.29 ± 0.022	2.057 ± 0.034
293.15 K, 10000 kPa	1.104 ± 0.02	1.348 ± 0.023	2.177 ± 0.036
293.15 K, 20000 kPa	1.197 ± 0.022	1.462 ± 0.025	2.381 ± 0.039
293.15 K, 30000 kPa	1.292 ± 0.023	1.588 ± 0.027	2.563 ± 0.042
293.15 K, 40000 kPa	1.391 ± 0.025	1.73 ± 0.03	2.757 ± 0.045
293.15 K, 50000 kPa	1.516 ± 0.027	1.87 ± 0.032	2.995 ± 0.049
293.15 K, 60000 kPa	1.65 ± 0.029	2.031 ± 0.035	3.241 ± 0.053
293.15 K, 70000 kPa	1.804 ± 0.032	2.196 ± 0.037	3.481 ± 0.056
293.15 K, 80000 kPa	1.938 ± 0.034	2.401 ± 0.041	3.754 ± 0.061
293.15 K, 100000 kPa	2.236 ± 0.04	2.773 ± 0.047	4.289 ± 0.069
293.15 K, 120000 kPa	2.578 ± 0.045	3.261 ± 0.055	4.849 ± 0.078
293.15 K, 140000 kPa	2.956 ± 0.052	3.719 ± 0.062	5.47 ± 0.088
313.15 K, 100 kPa	0.7478 ± 0.014	0.8685 ± 0.015	1.254 ± 0.021
313.15 K, 1000 kPa	0.7546 ± 0.014	0.8775 ± 0.016	1.271 ± 0.021
313.15 K, 5000 kPa	0.7792 ± 0.015	0.9012 ± 0.016	1.332 ± 0.022
313.15 K, 10000 kPa	0.8286 ± 0.015	0.9526 ± 0.017	1.385 ± 0.023
313.15 K, 20000 kPa	0.8853 ± 0.016	1.029 ± 0.018	1.506 ± 0.025
313.15 K, 30000 kPa	0.9596 ± 0.018	1.116 ± 0.019	1.645 ± 0.027
313.15 K, 40000 kPa	1.025 ± 0.019	1.201 ± 0.021	1.759 ± 0.029
313.15 K, 50000 kPa	1.105 ± 0.02	1.293 ± 0.022	1.921 ± 0.032
313.15 K, 60000 kPa	1.181 ± 0.021	1.402 ± 0.024	2.046 ± 0.034
313.15 K, 70000 kPa	1.271 ± 0.023	1.492 ± 0.026	2.187 ± 0.036
313.15 K, 80000 kPa	1.357 ± 0.024	1.612 ± 0.028	2.342 ± 0.038
313.15 K, 100000 kPa	1.531 ± 0.027	1.821 ± 0.031	2.65 ± 0.043
313.15 K, 120000 kPa	1.753 ± 0.031	2.065 ± 0.035	2.995 ± 0.049
313.15 K, 140000 kPa	1.969 ± 0.035	2.367 ± 0.04	3.336 ± 0.054
